Assay results taken from patent US20260098026A1, “M4 ACTIVATORS/MODULATORS AND USES THEREOF” (Cerevel Therapeutics, LLC, priority 2022, published 2026).

How the values were obtained:
[1] = molecular target: T1, M3 muscarinic acetylcholine receptor (mAChR) (Homo sapiens, UniProt P20309); test: FLIPR calcium assay (Fluo 8), M3-overexpressing CHO-K1 cells; assay type: cell-based
T1 construct: expressed in transfected cells; host or cells: CHO-K1
Procedure, shortened: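 CHO-K1 cells overexpressing each human receptor seeded at 15,000 per well, grown overnight at 37° C., 5% CO2, then loaded with Fluo-8 for 30 min. Compounds in HBSS added and calcium response read on FLIPR; EC50 and Emax calculated per subtype.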

M4 mAChR = molecular target: T2, M4 mAChR (Homo sapiens, UniProt P08173); test: cAMP TR-FRET assay with forskolin, M4-overexpressing CHO-K1 cells; assay type: cell-based
T2 construct: expressed in transfected cells; host or cells: CHO-K1
T2 sequence (P08173 1-479): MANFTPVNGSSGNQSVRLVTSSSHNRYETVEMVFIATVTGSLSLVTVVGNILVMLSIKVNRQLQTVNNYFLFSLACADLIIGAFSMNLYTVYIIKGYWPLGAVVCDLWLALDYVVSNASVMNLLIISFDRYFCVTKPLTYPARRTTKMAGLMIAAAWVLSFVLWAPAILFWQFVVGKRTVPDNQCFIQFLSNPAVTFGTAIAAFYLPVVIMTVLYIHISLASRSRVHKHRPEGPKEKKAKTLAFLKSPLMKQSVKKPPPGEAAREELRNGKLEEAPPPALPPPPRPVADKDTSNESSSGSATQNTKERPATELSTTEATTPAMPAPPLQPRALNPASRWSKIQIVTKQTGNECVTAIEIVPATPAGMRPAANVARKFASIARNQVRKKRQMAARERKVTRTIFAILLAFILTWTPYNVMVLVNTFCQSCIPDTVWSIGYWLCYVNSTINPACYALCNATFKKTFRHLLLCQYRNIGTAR
Procedure, shortened: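 CHO-K1 cells overexpressing the receptor were stimulated with forskolin to raise cAMP, so that Gi-mediated agonist decreases could be measured. cAMP was quantified by TR-FRET competition between cellular cAMP and labelled donor for anti-cAMP antibody, giving potency and efficacy.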

T1 sequence (P20309 whole entry): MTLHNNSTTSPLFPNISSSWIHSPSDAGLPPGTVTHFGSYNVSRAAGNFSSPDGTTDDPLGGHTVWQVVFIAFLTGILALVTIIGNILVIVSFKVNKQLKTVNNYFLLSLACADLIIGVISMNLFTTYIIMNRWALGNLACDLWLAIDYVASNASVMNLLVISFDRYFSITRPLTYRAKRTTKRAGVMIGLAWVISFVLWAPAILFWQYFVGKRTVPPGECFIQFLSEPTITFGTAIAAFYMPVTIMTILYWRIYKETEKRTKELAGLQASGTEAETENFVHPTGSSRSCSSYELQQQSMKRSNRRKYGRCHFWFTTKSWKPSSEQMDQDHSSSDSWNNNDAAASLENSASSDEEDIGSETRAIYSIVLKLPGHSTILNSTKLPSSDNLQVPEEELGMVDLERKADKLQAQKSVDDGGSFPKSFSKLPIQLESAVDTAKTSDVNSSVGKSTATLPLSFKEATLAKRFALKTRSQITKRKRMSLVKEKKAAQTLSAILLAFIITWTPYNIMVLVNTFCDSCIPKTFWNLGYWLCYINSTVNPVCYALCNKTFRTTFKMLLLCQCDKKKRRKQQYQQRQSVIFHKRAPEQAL

| EC50 ([1]; FLIPR calcium) [µM] | Emax (M4 mAChR; cAMP TR-FRET with forskolin) [%] | EC50 ([1]; FLIPR) [µM] | Emax (M4 mAChR; cAMP assay) [%] | Compound |
| --- | --- | --- | --- | --- |
| > 10 | 80 to 100 |  |  | CCOC(=O)N1CC2(CC[C@@H](N3CCN(c4cc(F)cnc4-c4cnccc4OC)CC3)C2)C1 [Compound A69] |
| > 10 | 80 to 100 |  |  | CCOC(=O)N1CC2(CC[C@@H](N3CCN(c4cc(F)cnc4-c4cc(F)ccc4O)CC3)C2)C1 [Compound A42] |
|  |  | > 10 | 80 to 100 | CCOC(=O)N1CC2(CC[C@@H](N3CCN(c4cc(F)cnc4-n4cnc(C)c4)CC3)C2)C1 [Compound A290] |
|  |  | > 10 | 19 to 49.9 | CCOC(=O)N1CC2(CC[C@@H](N3CCN(c4cc(F)cnc4NC4CC5(COC5)C4)CC3)C2)C1 [Compound A288] |
| > 10 | 80 to 100 |  |  | CCOC(=O)N1CC2(CC[C@@H](N3CCN(c4cc(F)cnc4-c4ccc(OC)cc4CO)CC3)C2)C1 [Compound A145] |
| > 10 | 80 to 100 |  |  | CCOC(=O)N1CC2(CC[C@@H](N3CCN(c4cc(F)cnc4-c4cc(C)[nH]n4)CC3)C2)C1 [Compound A101] |
|  |  | > 10 | 80 to 100 | CCOC(=O)N1CC2(CC[C@@H](N3CCN(c4cc(F)cnc4-c4ccnc(F)c4OC)CC3)C2)C1 [Compound A163] |
|  |  | > 10 | 80 to 100 | CCOC(=O)N1CC2(CC[C@@H](N3CCN(c4cc(F)cnc4-c4cccc(F)c4CO)CC3)C2)C1 [Compound A162] |
| > 10 | 80 to 100 |  |  | CCOC(=O)N1CC2(CC[C@@H](N3CCN(c4cc(F)cnc4-c4cc(C)nn4C)CC3)C2)C1 [Compound A144] |
| > 10 | 80 to 100 |  |  | CCOC(=O)N1CC2(CC[C@@H](N3CCN(c4cc(F)cnc4-c4ccnc(OC)c4F)CC3)C2)C1 [Compound A106] |
| > 10 | 80 to 100 |  |  | CCOC(=O)N1CC2(CC[C@@H](N3CCN(c4cc(F)cnc4-c4ccc5c(c4)OCO5)CC3)C2)C1 [Compound A130] |
| > 10 | 80 to 100 |  |  | CCOC(=O)N1CC2(CC[C@@H](N3CCN(c4cccnc4-c4cncc(F)c4)CC3)C2)C1 [Compound A26] |
| > 10 | 19 to 49.9 |  |  | CCOC(=O)N1CC2(CC[C@@H](N3CCN(c4cc(F)cnc4-c4cccc(OC)n4)CC3)C2)C1 [Compound A133] |
|  |  | > 10 | 50 to 79.9 | CCOC(=O)N1CC2(CC[C@@H](N3CCN(c4cc(F)cnc4-c4cnn(C(C)(C)C)c4)CC3)C2)C1 [Compound A191] |
|  |  | > 10 | 80 to 100 | CCOC(=O)N1CC2(CC[C@@H](N3CCN(c4cc(F)cnc4-c4ccc(C)nc4)CC3)C2)C1 [Compound A186] |
|  |  | > 10 | 50 to 79.9 | CCOC(=O)N1CC2(CC[C@@H](N3CCN(c4cc(F)cnc4-c4ccc(C)c(CO)c4)CC3)C2)C1 [Compound A150] |
| > 10 | 80 to 100 |  |  | CCOC(=O)N1CC2(CC[C@@H](N3CCN(c4cc(F)cnc4-c4ccc5c(c4)ncn5C)CC3)C2)C1 [Compound A131] |
| > 10 | 80 to 100 |  |  | CCOC(=O)N1CC2(CC[C@@H](N3CCN(c4cc(F)cnc4-c4cnc5c(ccn5C)c4)CC3)C2)C1 [Compound A99] |
| > 10 | 80 to 100 |  |  | CCOC(=O)N1CC2(CC[C@@H](N3CCN(c4cc(F)cnc4-c4ccc(OC)c(F)c4)CC3)C2)C1 [Compound A112] |
| > 10 | 80 to 100 |  |  | CCOC(=O)N1CC2(CC[C@@H](N3CCN(c4cc(F)cnc4-c4cccc5nn(C)cc45)CC3)C2)C1 [Compound A60] |
| > 10 | 80 to 100 |  |  | CCOC(=O)N1CC2(CC[C@@H](N3CCN(c4cc(F)cnc4-c4ccc(O)c(OC)c4)CC3)C2)C1 [Compound A40] |
| > 10 | 80 to 100 |  |  | CCOC(=O)N1CC2(CC[C@@H](N3CCN(c4cc(F)cnc4-c4cccc(CCO)c4)CC3)C2)C1 [Compound A90] |
|  |  | > 10 | 80 to 100 | CCOC(=O)N1CC2(CC[C@@H](N3CCN(c4cc(F)cnc4-c4cnn(COC)c4)CC3)C2)C1 [Compound A168] |
|  |  | > 10 | 80 to 100 | CCOC(=O)N1CC2(CC[C@@H](N3CCN(c4cc(F)cnc4-c4cnc(OC)cn4)CC3)C2)C1 [Compound A226] |
| > 10 | 80 to 100 |  |  | CCOC(=O)N1CC2(CC[C@@H](N3CCN(c4cc(F)cnc4-c4ccc(C#N)nc4)CC3)C2)C1 [Compound A29] |
| > 10 | 80 to 100 |  |  | CCOC(=O)N1CC2(CC[C@@H](N3CCN(c4cc(F)cnc4-c4cccc(C(=O)NC)c4)CC3)C2)C1 [Compound A97] |
|  |  | > 10 | 80 to 100 | CCOC(=O)N1CC2(CC[C@@H](N3CCN(c4cc(Cl)cnc4-c4cnn(C)c4)CC3)C2)C1 [Compound A204] |

| EC50 ([1]; FLIPR calcium) [µM] | Emax (M4 mAChR; cAMP TR-FRET with forskolin) [%] | EC50 ([1]; FLIPR) [µM] | Emax (M4 mAChR; cAMP assay) [%] | Compound |
| --- | --- | --- | --- | --- |
|  |  | > 10 | 80 to 100 | CCOC(=O)N1CC2(CC[C@@H](N3CCN(c4cc(F)cnc4-c4cc(F)cc(CO)c4)CC3)C2)C1 [Compound A154] |
|  |  | > 10 | 50 to 79.9 | CCOC(=O)N1CC2(CC[C@@H](N3CCN(c4cc(F)cnc4-c4cnn5c4OCCC5)CC3)C2)C1 [Compound A173] |
| > 10 | 80 to 100 |  |  | CCOC(=O)N1CC2(CC[C@@H](N3CCN(c4cc(F)cnc4-c4ccn5ccnc5c4)CC3)C2)C1 [Compound A92] |
|  |  | > 10 | 80 to 100 | CCOC(=O)N1CC2(CC[C@@H](N3CCN(c4cc(F)cnc4-c4cc(C)[nH]c(=O)c4)CC3)C2)C1 [Compound A205] |
|  |  | > 10 | 80 to 100 | CCOC(=O)N1CC2(CC[C@@H](N3CCN(c4cc(F)cnc4-c4cnn(CC(F)F)c4)CC3)C2)C1 [Compound A172] |
| > 10 | 50 to 79.9 |  |  | CCOC(=O)N1CC2(CC[C@@H](N3CCN(c4cc(F)cnc4-c4cccc5cnn(C)c45)CC3)C2)C1 [Compound A65] |
| > 10 | 80 to 100 |  |  | CCOC(=O)N1CC2(CC[C@@H](N3CCN(c4cc(F)cnc4-c4cccc5c[nH]nc45)CC3)C2)C1 [Compound A61] |
|  |  | > 10 | 80 to 100 | CCOC(=O)N1CC2(CC[C@@H](N3CCN(c4cc(F)cnc4-c4cc(F)ncc4F)CC3)C2)C1 [Compound A153] |
|  |  | > 10 | 80 to 100 | CCOC(=O)N1CC2(CC[C@@H](N3CCN(c4cc(F)cnc4-c4ccc5c(c4)CN(C)C5=O)CC3)C2)C1 [Compound A192] |
|  |  | > 10 | 80 to 100 | CCOC(=O)N1CC2(CC[C@@H](N3CCN(c4cc(Cl)cnc4-c4cccnn4)CC3)C2)C1 [Compound A245] |
| > 10 | 80 to 100 |  |  | CCOC(=O)N1CC2(CC[C@@H](N3CCN(c4cc(F)cnc4-c4ccc(C)nc4OC)CC3)C2)C1 [Compound A116] |
| > 10 | 80 to 100 |  |  | CCOC(=O)N1CC2(CC[C@@H](N3CCN(c4cc(Cl)cnc4C4CCOCC4)CC3)C2)C1 (single isomer, unassigned) [Compound A15] |
| > 10 | 80 to 100 |  |  | CCOC(=O)N1CC2(CC[C@@H](N3CCN(c4cc(F)cnc4-c4cccc(O)c4)CC3)C2)C1 [Compound A32] |
|  |  | > 10 | 80 to 100 | CCOC(=O)N1CC2(CC[C@@H](N3CCN(c4cc(F)cnc4-c4cncc(N)c4)CC3)C2)C1 [Compound A174] |
|  |  | > 10 | 80 to 100 | CCOC(=O)N1CC2(CC[C@@H](N3CCN(c4cc(F)cnc4OC4CCOCC4)CC3)C2)C1 [Compound A229] |
| > 10 | 80 to 100 |  |  | CCOC(=O)N1CC2(CC[C@@H](N3CCN(c4cc(F)cnc4-c4cncc(OCC)c4)CC3)C2)C1 [Compound A122] |
| > 10 | 80 to 100 |  |  | CCOC(=O)N1CC2(CC[C@@H](N3CCN(c4cc(F)cnc4-c4ccc(N(C)C)nc4)CC3)C2)C1 [Compound A56] |
|  |  | > 10 | 80 to 100 | CCOC(=O)N1CC2(CC[C@@H](N3CCN(c4cc(Cl)cnc4-c4ccc(C)nn4)CC3)C2)C1 [Compound A251] |
|  |  | > 10 | 50 to 79.9 | CCOC(=O)N1CC2(CC[C@@H](N3CCN(c4cc(F)cnc4-c4cnn(C(C)C)c4)CC3)C2)C1 [Compound A195] |
|  |  | > 10 | 80 to 100 | CCOC(=O)N1CC2(CC[C@@H](N3CCN(c4cccnc4N4CCCCC4)CC3)C2)C1 [Compound A215] |
|  |  | > 10 | 80 to 100 | CCOC(=O)N1CC2(CCC(N3CCN(c4cccnc4N4CCC(OC)CC4)CC3)C2)C1 (stereo not shown) [Compound A216] |
|  |  | > 10 | 80 to 100 | CCOC(=O)N1CC2(CC[C@@H](N3CCN(c4cc(Cl)cnc4-c4ccn(C)c(=O)c4)CC3)C2)C1 [Compound A209] |
|  |  | > 10 | 80 to 100 | CCOC(=O)N1CC2(CC[C@H](N3CCC(c4cc(F)cnc4-c4ccc(F)cn4)CC3)C2)C1 [Compound A293] |
| > 10 | 80 to 100 |  |  | CCOC(=O)N1CC2(CC[C@@H](N3CCN(c4cc(F)cnc4-c4cnn(C5COC5)c4)CC3)C2)C1 [Compound A126] |
| > 10 | 80 to 100 |  |  | CCOC(=O)N1CC2(CC[C@@H](N3CCN(c4cc(F)cnc4-c4cc(F)nc(F)c4)CC3)C2)C1 [Compound A119] |
|  |  | > 10 | 80 to 100 | CCOC(=O)N1CC2(CC[C@@H](N3CCN(c4cc(F)cnc4-c4cnn5c4CCCC5)CC3)C2)C1 [Compound A160] |
